From patent publication US20160375006A1, “USES OF PARALOG-SELECTIVE INHIBITORS OF GSK3 KINASES” (priority 2012, published 2016)

What was measured:
[1] = biological target: RET(M918T) (Homo sapiens, UniProt P07949, M918T)
Experimental: (§1) This was completed utilizing one of two assays depending on the kinase being examined.
(§2) A solution of IMAP binding reagent (IMAP Screening Express kit; Molecular Devices) (60 μL) was added to each well and incubated for 30 minutes.
(§3) A solution of termination buffer (QuickScout Screening assist MSA; Carna Biosciences) (60 μL) was added to each well. The entire reaction mixture was then applied to a LabChip3000 system (Caliper Life Science) and the product and substrate peptide peaks were separated and quantified.
(§4) The assay utilized was identical to that of the single point inhibitory activity determination (MSA) but run in dose response. […] A solution of termination buffer (QuickScout Screening assist MSA; Carna Biosciences) (60 μL) was added to each well. The entire reaction mixture was then applied to a LabChip3000 system (Caliper Life Science) and the product and substrate peptide peaks were separated and quantified.

[2] = biological target: AurA/TPX2 (Homo sapiens, UniProt O14965)
Experimental: as §1, §2, §3, §4

[3] = biological target: EGFR(L858R) (Homo sapiens, UniProt P00533, L858R)
Experimental: as §1, §2, §3, §4

[4] = biological target: PAK2 (Homo sapiens, UniProt Q13177)
Experimental: as §1, §2, §3, §4

[5] = biological target: EEF2K (Homo sapiens, UniProt O00418)
Experimental: as §1, §2, §3

[6] = biological target: TNIK (Homo sapiens, UniProt Q9UKE5)
Experimental: as §1, §2, §3, §4

[7] = biological target: CaMK1δ (Homo sapiens, UniProt Q8IU85)
Experimental: as §1, §2, §3, §4

[8] = biological target: FLT3 (Homo sapiens, UniProt P36888)
[9] = biological target: ABL(T315I) (Homo sapiens, UniProt P00519, T315I)
Experimental: as §1, §2, §3, §4

[10] = biological target: PIK3CA/PIK3R1 (Homo sapiens, UniProt P42336)
Experimental: as §1, §2, §3, §4

[11] = biological target: CaMK1α (Homo sapiens, UniProt Q14012)
Experimental: as §1, §2, §3, §4

[12] = biological target: MAPKAPK3 (Homo sapiens, UniProt Q16644)
MAPKAPK3, sequence (Q16644 whole entry): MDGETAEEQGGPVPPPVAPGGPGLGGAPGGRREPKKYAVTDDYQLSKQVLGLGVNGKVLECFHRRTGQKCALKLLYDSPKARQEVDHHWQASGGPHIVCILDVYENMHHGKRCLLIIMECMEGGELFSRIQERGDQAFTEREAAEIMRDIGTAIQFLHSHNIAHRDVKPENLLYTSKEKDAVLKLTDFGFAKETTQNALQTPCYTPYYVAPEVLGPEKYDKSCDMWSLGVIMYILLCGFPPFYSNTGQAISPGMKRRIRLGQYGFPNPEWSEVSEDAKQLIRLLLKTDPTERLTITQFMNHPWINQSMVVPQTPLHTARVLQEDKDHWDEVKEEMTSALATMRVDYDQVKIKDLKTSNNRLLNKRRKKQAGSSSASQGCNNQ
Experimental: as §1, §2, §3, §4

[13] = biological target: SRC (Homo sapiens, UniProt P12931)
SRC, sequence (P12931 whole entry): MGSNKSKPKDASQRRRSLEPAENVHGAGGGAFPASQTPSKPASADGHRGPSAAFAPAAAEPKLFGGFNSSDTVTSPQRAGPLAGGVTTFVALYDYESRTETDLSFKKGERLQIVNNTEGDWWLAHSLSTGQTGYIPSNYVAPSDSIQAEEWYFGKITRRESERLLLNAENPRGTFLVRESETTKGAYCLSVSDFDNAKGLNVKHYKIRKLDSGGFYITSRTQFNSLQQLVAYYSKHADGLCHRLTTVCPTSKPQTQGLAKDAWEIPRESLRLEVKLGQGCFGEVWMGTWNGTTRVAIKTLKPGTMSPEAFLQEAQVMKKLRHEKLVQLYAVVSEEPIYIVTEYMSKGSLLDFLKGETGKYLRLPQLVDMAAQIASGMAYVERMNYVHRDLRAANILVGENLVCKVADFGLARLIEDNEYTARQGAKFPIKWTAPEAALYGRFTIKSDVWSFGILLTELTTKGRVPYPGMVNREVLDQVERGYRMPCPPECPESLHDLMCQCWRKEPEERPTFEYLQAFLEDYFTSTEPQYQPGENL
Experimental: as §1, §2, §3, §4

[14] = biological target: EPHB4 (Homo sapiens, UniProt P54760)
EPHB4, sequence (P54760 16-987): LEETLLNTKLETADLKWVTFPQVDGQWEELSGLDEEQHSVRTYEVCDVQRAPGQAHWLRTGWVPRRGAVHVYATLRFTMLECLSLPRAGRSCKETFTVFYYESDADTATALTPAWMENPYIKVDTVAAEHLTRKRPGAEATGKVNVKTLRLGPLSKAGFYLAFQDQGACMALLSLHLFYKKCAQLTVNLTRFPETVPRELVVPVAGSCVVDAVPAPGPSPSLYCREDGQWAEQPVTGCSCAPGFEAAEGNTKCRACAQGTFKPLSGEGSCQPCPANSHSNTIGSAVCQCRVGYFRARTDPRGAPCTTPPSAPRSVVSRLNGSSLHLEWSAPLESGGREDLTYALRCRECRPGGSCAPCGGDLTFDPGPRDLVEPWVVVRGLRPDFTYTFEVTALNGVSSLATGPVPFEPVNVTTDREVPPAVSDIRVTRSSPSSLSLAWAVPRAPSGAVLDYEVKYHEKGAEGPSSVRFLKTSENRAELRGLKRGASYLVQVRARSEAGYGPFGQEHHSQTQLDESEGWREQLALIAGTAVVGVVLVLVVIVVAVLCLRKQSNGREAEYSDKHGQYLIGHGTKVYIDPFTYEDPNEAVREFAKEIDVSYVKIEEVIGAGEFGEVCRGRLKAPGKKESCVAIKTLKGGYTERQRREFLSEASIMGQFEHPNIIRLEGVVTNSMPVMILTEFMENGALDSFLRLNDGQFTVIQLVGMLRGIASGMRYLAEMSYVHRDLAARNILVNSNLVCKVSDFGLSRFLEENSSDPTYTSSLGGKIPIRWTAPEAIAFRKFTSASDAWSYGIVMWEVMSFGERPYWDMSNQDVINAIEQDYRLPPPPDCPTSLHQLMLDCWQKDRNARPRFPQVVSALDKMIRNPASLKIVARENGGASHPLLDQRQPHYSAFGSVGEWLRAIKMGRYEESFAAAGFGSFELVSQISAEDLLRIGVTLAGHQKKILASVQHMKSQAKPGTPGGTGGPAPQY
Experimental: as §1, §2, §3, §4

[15] = biological target: EGFR(T790M/L858R) (Homo sapiens, UniProt P00533, L858R/T790M)
Experimental: as §1, §2, §3, §4

[16] = biological target: PLK3 (Homo sapiens, UniProt Q9H4B4)
Experimental: as §1, §2, §3

[17] = biological target: EGFR(d746-750) (Homo sapiens, UniProt P00533, DEL746-750)
Experimental: as §1, §2, §3

[18] = biological target: SIK (Homo sapiens, UniProt P57059)
SIK, sequence (P57059 whole entry): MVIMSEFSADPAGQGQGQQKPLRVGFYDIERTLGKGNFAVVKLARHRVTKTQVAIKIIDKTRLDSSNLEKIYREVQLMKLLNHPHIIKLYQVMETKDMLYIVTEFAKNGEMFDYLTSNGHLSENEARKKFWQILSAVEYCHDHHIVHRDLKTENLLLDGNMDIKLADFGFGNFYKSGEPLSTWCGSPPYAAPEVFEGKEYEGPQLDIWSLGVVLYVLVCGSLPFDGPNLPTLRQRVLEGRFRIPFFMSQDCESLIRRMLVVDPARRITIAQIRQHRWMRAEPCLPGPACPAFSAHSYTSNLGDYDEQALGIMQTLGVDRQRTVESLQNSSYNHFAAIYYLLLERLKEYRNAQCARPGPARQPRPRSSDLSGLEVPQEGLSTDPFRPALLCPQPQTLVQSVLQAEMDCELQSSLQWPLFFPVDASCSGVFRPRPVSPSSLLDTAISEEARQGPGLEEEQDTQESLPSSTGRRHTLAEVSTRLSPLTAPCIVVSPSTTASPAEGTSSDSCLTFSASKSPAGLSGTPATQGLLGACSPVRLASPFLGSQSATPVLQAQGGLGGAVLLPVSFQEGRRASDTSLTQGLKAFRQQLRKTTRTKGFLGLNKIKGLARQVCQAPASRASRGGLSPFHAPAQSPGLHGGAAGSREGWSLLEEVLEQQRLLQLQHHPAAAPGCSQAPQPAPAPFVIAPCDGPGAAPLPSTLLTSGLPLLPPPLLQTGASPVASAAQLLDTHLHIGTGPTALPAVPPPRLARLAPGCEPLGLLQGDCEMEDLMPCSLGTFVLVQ
Experimental: as §1, §2, §3, §4

[19] = biological target: AKT1 (Homo sapiens, UniProt P31749)
Experimental: as §1, §2, §3, §4

[20] = biological target: NEK1 (Homo sapiens, UniProt Q96PY6)
Experimental: as §1, §2, §3

[21] = biological target: FGFR3(K650M) (Homo sapiens, UniProt P22607, K650M)
Experimental: as §2, §3, §4

[22] = biological target: SLK (Homo sapiens, UniProt Q9H2G2)
Experimental: as §1, §2, §3, §4

[23] = biological target: CDC7/ASK (Homo sapiens, UniProt O00311)
Experimental: as §1, §2, §3, §4

[24] = biological target: MET(Y1235D) (Homo sapiens, UniProt P08581, Y1235D)
Experimental: as §1, §2, §3, §4

[25] = biological target: PIM3 (Homo sapiens, UniProt Q86V86)
Experimental: as §1, §2, §3

[26] = biological target: MARK4 (Homo sapiens, UniProt Q96L34)
Experimental: as §1, §2, §3, §4

[27] = biological target: KIT(D816V) (Homo sapiens, UniProt P10721, D816V)
KIT(D816V), sequence (P10721 26-976 D816V): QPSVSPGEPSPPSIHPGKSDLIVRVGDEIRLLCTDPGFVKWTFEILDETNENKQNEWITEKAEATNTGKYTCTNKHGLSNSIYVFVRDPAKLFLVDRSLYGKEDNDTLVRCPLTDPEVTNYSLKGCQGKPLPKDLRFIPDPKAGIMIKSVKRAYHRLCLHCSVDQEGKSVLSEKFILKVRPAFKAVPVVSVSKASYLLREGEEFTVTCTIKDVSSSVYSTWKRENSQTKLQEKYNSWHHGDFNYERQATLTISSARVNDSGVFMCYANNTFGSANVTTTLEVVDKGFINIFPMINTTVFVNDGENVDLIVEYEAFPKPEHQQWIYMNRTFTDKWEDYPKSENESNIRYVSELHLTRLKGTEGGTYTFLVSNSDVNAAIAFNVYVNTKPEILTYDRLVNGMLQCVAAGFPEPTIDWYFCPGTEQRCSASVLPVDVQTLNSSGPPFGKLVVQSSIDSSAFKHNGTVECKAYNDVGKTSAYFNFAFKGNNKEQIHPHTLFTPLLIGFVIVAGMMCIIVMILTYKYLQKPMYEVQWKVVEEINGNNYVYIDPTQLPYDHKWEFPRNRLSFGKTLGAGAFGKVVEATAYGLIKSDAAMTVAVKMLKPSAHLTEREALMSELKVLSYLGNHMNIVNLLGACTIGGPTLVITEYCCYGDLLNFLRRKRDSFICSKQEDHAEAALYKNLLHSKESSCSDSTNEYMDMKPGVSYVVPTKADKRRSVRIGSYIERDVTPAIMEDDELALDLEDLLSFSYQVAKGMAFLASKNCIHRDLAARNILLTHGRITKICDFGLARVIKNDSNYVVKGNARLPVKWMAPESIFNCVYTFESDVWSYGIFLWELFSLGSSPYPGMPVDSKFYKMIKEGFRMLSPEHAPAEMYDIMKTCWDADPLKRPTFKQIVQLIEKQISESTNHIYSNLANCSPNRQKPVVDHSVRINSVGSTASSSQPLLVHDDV
Experimental: as §1, §2, §3, §4

[28] = biological target: YES (Homo sapiens, UniProt P07947)
Experimental: as §1, §2, §3

[29] = biological target: MRCKβ (Homo sapiens, UniProt Q9Y5S2)
Experimental: as §1, §2, §3, §4

[30] = biological target: PEK (Homo sapiens, UniProt Q9NZJ5)
Experimental: as §1, §2, §3

[31] = biological target: ITK (Homo sapiens, UniProt Q08881)
Experimental: as §1, §2, §3, §4

[32] = biological target: AXL (Homo sapiens, UniProt P30530)
Experimental: as §1, §2, §3

[33] = biological target: FGFR4(V550L) (Homo sapiens, UniProt P22455, V550L)
Experimental: as §1, §2, §3, §4

[34] = biological target: p38δ (Homo sapiens, UniProt O15264)
Experimental: as §1, §2, §3, §4

[35] = biological target: CSK (Homo sapiens, UniProt P41240)
Experimental: as §1, §2, §3, §4

[36] = biological target: LYNa (Homo sapiens, UniProt P07948)
Experimental: as §1, §2, §3

[37] = biological target: PKN1 (Homo sapiens, UniProt Q16512)
Experimental: as §1, §2, §3, §4

[38] = biological target: CK1α (Homo sapiens, UniProt P48729)
Experimental: as §1, §3
The assay utilized was identical to that of the single point inhibitory activity determination (MSA) but run in dose response.

[39] = biological target: DLK_Cascade (Homo sapiens, UniProt Q12852)
Experimental: as §1, §2, §3, §4

[40] = biological target: EGFR (Homo sapiens, UniProt P00533)
Experimental: as §1, §2, §3, §4

EGFR(L858R), sequence (P00533 25-1210 L858R): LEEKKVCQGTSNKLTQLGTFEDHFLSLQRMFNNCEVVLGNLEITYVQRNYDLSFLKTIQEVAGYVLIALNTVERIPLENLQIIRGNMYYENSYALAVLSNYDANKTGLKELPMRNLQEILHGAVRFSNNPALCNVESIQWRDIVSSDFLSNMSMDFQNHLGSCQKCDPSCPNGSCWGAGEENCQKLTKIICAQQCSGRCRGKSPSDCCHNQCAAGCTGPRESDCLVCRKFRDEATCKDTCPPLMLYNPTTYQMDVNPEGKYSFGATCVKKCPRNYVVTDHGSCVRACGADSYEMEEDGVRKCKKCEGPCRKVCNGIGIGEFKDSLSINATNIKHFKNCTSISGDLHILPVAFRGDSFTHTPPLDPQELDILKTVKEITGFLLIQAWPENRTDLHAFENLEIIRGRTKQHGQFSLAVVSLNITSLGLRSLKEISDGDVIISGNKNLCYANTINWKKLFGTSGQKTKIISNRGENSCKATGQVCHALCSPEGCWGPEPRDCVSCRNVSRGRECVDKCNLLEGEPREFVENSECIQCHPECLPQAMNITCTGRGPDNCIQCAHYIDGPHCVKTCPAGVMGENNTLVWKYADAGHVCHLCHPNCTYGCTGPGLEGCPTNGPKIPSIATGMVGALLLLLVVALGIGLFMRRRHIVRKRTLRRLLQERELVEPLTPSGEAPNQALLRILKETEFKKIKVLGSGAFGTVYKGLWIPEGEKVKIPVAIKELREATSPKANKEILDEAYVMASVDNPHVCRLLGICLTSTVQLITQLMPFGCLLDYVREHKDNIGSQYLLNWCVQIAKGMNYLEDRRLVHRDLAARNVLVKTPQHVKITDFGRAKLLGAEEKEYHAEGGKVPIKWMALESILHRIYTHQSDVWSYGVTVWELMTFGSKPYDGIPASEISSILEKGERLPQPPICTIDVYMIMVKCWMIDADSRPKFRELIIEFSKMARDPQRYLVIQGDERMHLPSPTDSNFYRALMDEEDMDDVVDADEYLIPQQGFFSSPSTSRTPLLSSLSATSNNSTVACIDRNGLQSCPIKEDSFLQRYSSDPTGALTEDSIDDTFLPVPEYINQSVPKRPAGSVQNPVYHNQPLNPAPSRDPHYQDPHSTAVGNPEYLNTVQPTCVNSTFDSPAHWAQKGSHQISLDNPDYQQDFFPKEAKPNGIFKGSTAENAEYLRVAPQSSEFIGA

CC[C@@]1(c2ccccc2)C2=C(CC(C)(C)CC2=O)Nc2n[nH]cc21 [BRD0705]
% Inhibition at 10 μM [1]: −2.9% | % Inhibition at 10 μM [2]: −5.3% | % Inhibition at 10 μM [3]: −4.0% | % Inhibition at 10 μM [4]: 6.4% | % Inhibition at 10 μM [5]: −6.4% | % Inhibition at 10 μM [6]: 6.8% | % Inhibition at 10 μM [7]: −3.0% | % Inhibition at 10 μM [8]: 25.0% | % Inhibition at 10 μM [9]: 0.7% | % Inhibition at 10 μM [10]: −10.7% | % Inhibition at 10 μM [11]: −4.7% | % Inhibition at 10 μM [12]: −8.3% | % Inhibition at 10 μM [13]: 3.2% | % Inhibition at 10 μM [14]: 14.7% | % Inhibition at 10 μM [15]: −4.0% | % Inhibition at 10 μM [16]: −12.5% | % Inhibition at 10 μM [17]: −12.0% | % Inhibition at 10 μM [18]: −4.8% | % Inhibition at 10 μM [19]: −8.3% | % Inhibition at 10 μM [20]: −9.6% | % Inhibition at 10 μM [21]: −2.7% | % Inhibition at 10 μM [22]: −10.7% | % Inhibition at 10 μM [23]: −7.2% | % Inhibition at 10 μM [24]: −1.0% | % Inhibition at 10 μM [25]: 1.2% | % Inhibition at 10 μM [26]: 2.0% | % Inhibition at 10 μM [27]: 3.5% | % Inhibition at 10 μM [28]: 7.9% | % Inhibition at 10 μM [29]: −9.1% | % Inhibition at 10 μM [30]: 1.7% | % Inhibition at 10 μM [31]: 0.3% | % Inhibition at 10 μM [32]: 3.7% | % Inhibition at 10 μM [33]: −0.4% | % Inhibition at 10 μM [34]: 2.4% | % Inhibition at 10 μM [35]: 0.9% | % Inhibition at 10 μM [36]: −0.4% | % Inhibition at 10 μM [37]: 1.8% | % Inhibition at 10 μM [38]: 6.0% | % Inhibition at 10 μM [39]: −1.1% | % Inhibition at 10 μM [40]: 0.3%

CC(C)(C)Cc1[nH]nc2c1[C@](C)(c1ccccc1)C1=C(CC(C)(C)CC1=O)N2 [BRD3731]
% Inhibition 10 μM ([1]; 10 μM): −2.2% | % Inhibition 10 μM ([2]; 10 μM): 3.8% | % Inhibition 10 μM ([3]; 10 μM): −1.2% | % Inhibition 10 μM ([4]; 10 μM): 0.0% | % Inhibition 10 μM ([5]; 10 μM): 3.9% | % Inhibition 10 μM ([6]; 10 μM): −1.2% | % Inhibition 10 μM ([7]; 10 μM): 16.7% | % Inhibition 10 μM ([8]; 10 μM): 13.8% | % Inhibition 10 μM ([9]; 10 μM): −2.4% | % Inhibition 10 μM ([10]; 10 μM): 42.5% | % Inhibition 10 μM ([11]; 10 μM): 4.7% | % Inhibition 10 μM ([12]; 10 μM): 6.0% | % Inhibition 10 μM ([13]; 10 μM): 1.0% | % Inhibition 10 μM ([14]; 10 μM): 1.9% | % Inhibition 10 μM ([15]; 10 μM): −4.0% | % Inhibition 10 μM ([16]; 10 μM): 4.0% | % Inhibition 10 μM ([17]; 10 μM): 2.5% | % Inhibition 10 μM ([18]; 10 μM): 8.2% | % Inhibition 10 μM ([19]; 10 μM): −1.1% | % Inhibition 10 μM ([20]; 10 μM): −0.1% | % Inhibition 10 μM ([21]; 10 μM): 0.8% | % Inhibition 10 μM ([22]; 10 μM): −1.8% | % Inhibition 10 μM ([23]; 10 μM): −3.1% | % Inhibition 10 μM ([24]; 10 μM): 1.2% | % Inhibition 10 μM ([25]; 10 μM): 13.1% | % Inhibition 10 μM ([26]; 10 μM): 22.7% | % Inhibition 10 μM ([27]; 10 μM): −1.7% | % Inhibition 10 μM ([28]; 10 μM): 1.6% | % Inhibition 10 μM ([29]; 10 μM): −0.7% | % Inhibition 10 μM ([30]; 10 μM): 1.4% | % Inhibition 10 μM ([31]; 10 μM): 2.8% | % Inhibition 10 μM ([32]; 10 μM): 3.8% | % Inhibition 10 μM ([33]; 10 μM): 2.9% | % Inhibition 10 μM ([34]; 10 μM): −0.2% | % Inhibition 10 μM ([35]; 10 μM): 1.9% | % Inhibition 10 μM ([36]; 10 μM): −0.3% | % Inhibition 10 μM ([37]; 10 μM): 16.2% | % Inhibition 10 μM ([38]; 10 μM): −5.6% | % Inhibition 10 μM ([39]; 10 μM): 0.9% | % Inhibition 10 μM ([40]; 10 μM): 10.0%
